Key:
[1] = system: international normalized ratio (INR); test: Phase 1 drug-drug interaction study: anticoagulation pharmacodynamics of warfarin (INR); format: in vivo, healthy subjects; design: AUCINR Mean (SD) / AUCINR Median / AUCINR LSGM: unit not given beside the values
Text: Primary anticoagulation pharmacodynamic endpoints were maximum international normalized ratio (INRmax) and plasma international normalized ratio time curve (AUCINR).

[2] = Phase 1 open-label crossover drug-drug interaction study: pharmacokinetics of warfarin with or without ethyl eicosapentaenoate; details: for AUC0-inf LSGM (least squares geometric mean) / Cmax LSGM (least squares geometric mean): W = warfarin (25 mg) administered alone; for effect of co-administration with ethyl eicosapentaenoate on Tmax: compared with Tmax when administered alone; for AUC0-inf / AUC0-last / Cmax / Kel / Tmax: plasma
Text: Twenty-five out of the twenty-six enrolled subjects completed the study. One enrolled subject withdrew consent and disconsinuted prematurely. […] On each of Day 8 through Day 35, all subjects received about 4 g of ethyl eicosapentaenoate (oral) as described herein.

[3] = least squares geometric mean, mixed models
[4] = warfarin 25 mg + ethyl eicosapentaenoate 4 g

CC(=O)CC(c1ccccc1)c1c(O)c2ccccc2oc1=O (stereo not drawn) [Warfarin, warfarin]
AUCINR, concomitant vs warfarin alone ([1]; in vivo): similar
INRmax, concomitant vs warfarin alone ([1]; in vivo): similar
AUCINR LSGM [1, 3]: 216.2
INRmax LSGM [1, 3]: 1.80
Median time to INRmax (TINRmax), co-administered vs warfarin alone ([1]; p=0.026): significantly lower
TINRmax Median ([1]; time to INRmax, warfarin 25 mg, EPA 4 g): 48.0 h
AUCINR Mean (SD) ([1]; warfarin 25 mg, EPA 4 g): 217.8 (27.7)
AUCINR Median ([1]; warfarin 25 mg, EPA 4 g): 213.4
INRmax Mean (SD) ([1]; warfarin 25 mg, EPA 4 g): 1.86 (0.48)
INRmax Median ([1]; warfarin 25 mg, EPA 4 g): 1.74

CC(=O)C[C@@H](c1ccccc1)c1c(O)c2ccccc2oc1=O [S-Warfarin, S-warfarin]
AUC0-inf LSGM (least squares geometric mean) [2]: 58,344 ng · h/mL
Cmax LSGM (least squares geometric mean) [2]: 1715.9 ng/mL
effect of co-administration with ethyl eicosapentaenoate on Tmax [2]: did not significantly affect
AUC0-inf ([2]; oral warfarin 25 mg alone): 60,216 (15,009) ng · h/mL
AUC0-last ([2]; oral warfarin 25 mg alone): 59,253 (15,429) ng · h/mL
Cmax ([2]; oral warfarin 25 mg alone): 1836 (729) ng/mL
Kel ([2]; oral warfarin 25 mg alone): 0.020 (0.005) 1/h
Tmax ([2]; oral warfarin 25 mg alone): 1.0 (0.5, 9.0) h
AUC0-inf [2, 4]: 60,253 (16,204) ng · h/mL
AUC0-last [2, 4]: 59,134 (16,451) ng · h/mL
Cmax [2, 4]: 1973 (616) ng/mL
Kel [2, 4]: 0.020 (0.005) 1/h
Tmax [2, 4]: 1.0 (0.5, 1.5) h

CC(=O)C[C@H](c1ccccc1)c1c(O)c2ccccc2oc1=O [R-Warfarin, R-warfarin]
AUC0-inf LSGM (least squares geometric mean) [2]: 80,486 ng · h/mL
Cmax LSGM (least squares geometric mean) [2]: 1659.6 ng/mL
effect of co-administration with ethyl eicosapentaenoate on Tmax [2]: did not significantly affect
AUC0-inf ([2]; oral warfarin 25 mg alone): 82,620 (19,725) ng · h/mL
AUC0-last ([2]; oral warfarin 25 mg alone): 77,539 (17,374) ng · h/mL
Cmax ([2]; oral warfarin 25 mg alone): 1766 (673) ng/mL
Tmax ([2]; oral warfarin 25 mg alone): 1.0 (0.5, 9.0) h
AUC0-inf [2, 4]: 82,460 (22,798) ng · h/mL
AUC0-last [2, 4]: 77,117 (19,505) ng · h/mL
Cmax [2, 4]: 1865 (592) ng/mL
Kel [2, 4]: 0.016 (0.005) 1/h
Tmax [2, 4]: 1.0 (0.5, 1.5) h

CC/C=C\C/C=C\C/C=C\C/C=C\C/C=C\CCCC(=O)OCC [ethyl eicosapentaenoate, all-cis eicosa-5,8,11,14,17-pentaenoic acid ethyl ester]
anticoagulation pharmacodynamic effects compared to warfarin alone ([1]; in vivo): did not have an effect
